Assays:
NA reuptake = test: Inhibition of NA (noradrenaline) uptake in rat hypothalamus synaptosomes; assay type: biochemical; details: synaptosomes from hypothalamus of male rat brains
Procedure: (§1) Biological Data Inhibition of NA and 5HT Uptake
(§2) In order to be able to carry out these in vitro studies, synaptosomes are freshly isolated from areas of the rat brain. In each case a so-called “P2” fraction prepared in accordance with the instructions of Gray and Whittaker (E. G. Gray and V. P. Whittaker (1962) J. Anat. 76, 79-88) is prepared. For the NA uptake, these vesicular particles are isolated from the hypothalamus of male rat brains. A detailed description of the method can be found in the literature (M. Ch. Frink, H.-H. Hennies, W. Englberger, M. Haurand and B. Wilffert (1996) Arzneim.-Forsch./Drug Res. 46 (III), 11, 1029-1036).

Serotonin reuptake = target: T1, Serotonin reuptake (Rattus norvegicus, UniProt P31652); test: Inhibition of 5HT (serotonin) uptake in rat brain synaptosomes; assay type: biochemical; details: synaptosomes from rat brain; for inhibition at 10 µM: 10 μmol
T1 construct: synaptosomes are freshly isolated from areas of the rat brain; from tissue; host or cells: rat brain synaptosomes (P2 fraction)
T1 sequence (P31652 whole entry): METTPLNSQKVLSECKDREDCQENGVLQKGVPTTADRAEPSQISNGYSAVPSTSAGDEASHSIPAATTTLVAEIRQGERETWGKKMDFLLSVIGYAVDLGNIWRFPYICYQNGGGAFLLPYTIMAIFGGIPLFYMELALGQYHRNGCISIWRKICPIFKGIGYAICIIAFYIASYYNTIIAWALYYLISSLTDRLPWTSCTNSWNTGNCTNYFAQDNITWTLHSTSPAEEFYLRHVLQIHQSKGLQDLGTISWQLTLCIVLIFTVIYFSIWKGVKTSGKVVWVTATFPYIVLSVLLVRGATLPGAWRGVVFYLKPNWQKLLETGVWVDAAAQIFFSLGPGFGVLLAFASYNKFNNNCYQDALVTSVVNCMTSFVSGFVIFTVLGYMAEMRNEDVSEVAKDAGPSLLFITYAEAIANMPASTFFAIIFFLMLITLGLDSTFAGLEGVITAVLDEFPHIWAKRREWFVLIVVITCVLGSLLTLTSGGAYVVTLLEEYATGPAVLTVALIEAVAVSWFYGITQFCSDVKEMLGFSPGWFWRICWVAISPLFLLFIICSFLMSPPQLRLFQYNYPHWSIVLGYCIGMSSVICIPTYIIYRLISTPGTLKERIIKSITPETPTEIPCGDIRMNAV
Procedure: as §1, §2

| SMILES | NA reuptake % inhibition [10 μmol] (NA reuptake) [%] | inhibition at 10 µM (Serotonin reuptake) [%] | Serotonin reuptake % inhibition [10 μmol] (Serotonin reuptake) [%] |
| --- | --- | --- | --- |
| COc1ccccc1C(=O)N1CCn2cccc2C1c1ccc(Cl)cc1 (centres unmarked) [Example 29, (1-(4-chlorophenyl)-3,4-dihydropyrrolo[1,2-a]pyrazin-2(1H)-yl)(2-methoxyphenyl)methanone] | 21 | 34 |  |
| COc1ccccc1C(=O)N1CCn2cccc2C1c1cccc(Cl)c1 (centres unmarked) [Example 39, (1-(3-chlorophenyl)-3,4-dihydropyrrolo[1,2-a]pyrazin-2-(1H)-yl)(2-methoxyphenyl)methanone] | 43 |  | 46 |
| O=C(c1cccs1)N1CCn2cccc2C1c1cccc(Cl)c1 (centres unmarked) [Example 45, [1-(3-chloro-phenyl)-3,4-dihydro-1H-pyrrolo[1,2-a]pyrazin-2-yl]-thiophen-2-yl-methanone] | 43 | 53 |  |
| Cc1cccc(C2c3cccn3CCN2C(=O)c2cccs2)c1 (centres unmarked) [Example 14, thiophen-2-yl(1-m-tolyl-3,4-dihydropyrrolo[1,2-a]pyrazin-2(1H)-yl)methanone] | 25 | 27 |  |
| Cc1ccccc1C(=O)N1CCn2cccc2C1c1ccccc1 (centres unmarked) [Example 26, (1-phenyl-3,4-dihydropyrrolo[1,2-a]pyrazin-2(1H)-yl)(o-tolyl)methanone] | 23 | 32 |  |
| COCC(=O)N1CCn2cccc2C1c1ccccc1 (centres unmarked) [Example 25, 2-methoxy-1-(1-phenyl-3,4-dihydropyrrolo[1,2-a]pyrazin-2(1H)-yl)ethanone] | 12 | 33 |  |
| O=C(c1ccc2c(c1)OCO2)N1CCn2cccc2C1c1ccccc1F (centres unmarked) [Example 9, benzo[d][1,3]dioxol-5-yl(1-(2-fluorophenyl)-3,4-dihydropyrrolo[1,2-a]pyrazin-2(1H)-yl)methanone] | 27 | 30 |  |
| O=C(C1CCCC1)N1CCn2cccc2C1c1ccccc1 (centres unmarked) [Example 24, cyclopentyl(1-phenyl-3,4-dihydropyrrolo[1,2-a]pyrazin-2(1H)-yl)methanone] | 44 | 32 |  |
| O=C(C1CC1)N1CCn2cccc2C1c1ccccc1F (centres unmarked) [Example 6, cyclopropyl(1-(2-fluorophenyl)-3,4-dihydropyrrolo[1,2-a]pyrazin-2(1H)-yl)methanone] | 13 | 34 |  |
| COc1ccccc1C(=O)N1CCn2cccc2C1c1ccccc1OC (centres unmarked) [Example 4, (2-methoxy-phenyl)-[1-(2-methoxy-phenyl)-3,4-dihydro-1H-pyrrolo[1,2-a]pyrazin-2-yl]-methanone] | 13 | 82 |  |
| O=C(c1cccs1)N1CCn2cccc2C1c1ccc2c(c1)OCCO2 (centres unmarked) [Example 36, [1-(2,3-dihydro-benzo[1,4]dioxin-6-yl)-3,4-dihydro-1H-pyrrolo[1,2-a]pyrazin-2-yl]-thiophen-2-yl-methanone] | 41 | 59 |  |
| Cc1ccccc1C(=O)N1CCn2cccc2C1c1ccccc1F (centres unmarked) [Example 8, (1-(2-fluorophenyl)-3,4-dihydropyrrolo[1,2-a]pyrazin-2(1H)-yl)(o-tolyl)methanone] | 18 | 37 |  |
| Cc1cccc(C2c3cccn3CCN2C(=O)C2CCCC2)c1 (centres unmarked) [Example 17, cyclopentyl(1-m-tolyl-3,4-dihydropyrrolo[1,2-a]pyrazin-2(1H)-yl)methanone] | 21 | 34 |  |
| Cc1ccccc1C(=O)N1CCn2cccc2C1c1cccs1 (centres unmarked) [Example 57, (1-(thiophen-2-yl)-3,4-dihydropyrrolo[1,2-a]pyrazin-2(1H)-yl)(o-tolyl)methanone] | 15 | 44 |  |
| O=C(c1cccs1)N1CCn2cccc2C1c1ccc(Cl)c(Cl)c1 (centres unmarked) [Example 65, (1-(3,4-Dichlorophenyl)-3,4-dihydropyrrolo[1,2-a]pyrazin-2(1H)-yl)(thiophen-2-yl)methanone] | 49 | 43 |  |
| CN(C)c1ccc(C2c3cccn3CCN2C(=O)c2ccccc2F)cc1 (centres unmarked) [Example 51, (1-(4-(dimethylamino)phenyl)-3,4-dihydropyrrolo[1,2-a]pyrazin-2(1H)-yl)(2-fluorophenyl)methanone] | 19 | 43 |  |
| Cc1ccccc1C1c2cccn2CCN1C(=O)c1ccc2c(c1)OCO2 (centres unmarked) [Example 12, benzo[d][1,3]dioxol-5-yl(1-o-tolyl-3,4-dihydropyrrolo[1,2-a]pyrazin-2(1H)-yl)methanone] | 22 | 34 |  |

| SMILES | NA reuptake % inhibition [10 μmol] (NA reuptake) [%] | inhibition at 10 µM (Serotonin reuptake) [%] | Serotonin reuptake % inhibition [10 μmol] (Serotonin reuptake) [%] |
| --- | --- | --- | --- |
| O=C(c1ccc2c(c1)OCO2)N1CCn2cccc2C1c1cccs1 (centres unmarked) [Example 56, benzo[1,3]dioxol-5-yl-(1-thiophen-2-yl-3,4-dihydro-1H-pyrrolo[1,2-a]pyrazin-2-yl)-methanone] | 35 | 56 |  |
| O=C(c1cccc(F)c1)N1CCn2cccc2C1c1ccccc1 (centres unmarked) [Example 23, (3-fluorophenyl)(1-phenyl-3,4-dihydropyrrolo[1,2-a]pyrazin-2(1H)-yl)methanone] | 41 | 42 |  |
| O=C(CCCCc1ccccc1)N1CCn2cccc2C1c1cccs1 (centres unmarked) [Example 77, 5-phenyl-1-(1-(thiophen-2-yl)-3,4-dihydropyrrolo[1,2-a]pyrazin-2(1H)-yl)pentan-1-one] | 10 | 25 |  |
| CN(C)c1ccc(C2c3cccn3CCN2C(=O)c2cccs2)cc1 (centres unmarked) [Example 53, (1-(4-(dimethylamino)phenyl)-3,4-dihydropyrrolo[1,2-a]pyrazin-2(1H)-yl)(thiophen-2-yl)methanone] | 26 | 31 |  |
| COc1ccccc1C(=O)N1CCn2cccc2C1c1ccccc1 (centres unmarked) [Example 27, (2-methoxyphenyl)(1-phenyl-3,4-dihydropyrrolo[1,2-a]pyrazin-2(1H)-yl)methanone] | 15 | 28 |  |
| O=C(c1ccccc1F)N1CCn2cccc2C1c1ccc2c(c1)OCCO2 (centres unmarked) [Example 35, [1-(2,3-dihydro-benzo[1,4]dioxin-6-yl)-3,4-dihydro-1H-pyrrolo[1,2-a]pyrazin-2-yl]-(2-fluoro-phenyl)-methanone] | 43 | 66 |  |
| O=C(CCC1CCCCC1)N1CCn2cccc2C1c1cccs1 (centres unmarked) [Example 86, 3-cyclohexyl-1-(1-(thiophen-2-yl)-3,4-dihydropyrrolo[1,2-a]pyrazin-2(1H)-yl)propan-1-one] | 19 | 53 |  |
| O=C(c1ccc2c(c1)OCO2)N1CCn2cccc2C1c1ccc2c(c1)OCCO2 (centres unmarked) [Example 33, benzo[1,3]dioxol-5-yl-[1-(2,3-dihydro-benzo[1,4]dioxin-6-yl)-3,4-dihydro-1H-pyrrolo[1,2-a]pyrazin-2-yl]-methanone] | 26 | 52 |  |
| O=C(C1CCCC1)N1CCn2cccc2C1c1cccc(Cl)c1 (centres unmarked) [Example 42, (1-(3-chlorophenyl)-3,4-dihydropyrrolo[1,2-a]pyrazin-2(1H)-yl)(cyclopentyl)methanone] | 22 | 30 |  |
| O=C(c1cccc(F)c1)N1CCn2cccc2C1c1ccccc1F (centres unmarked) [Example 7, (3-fluoro-phenyl)-[1-(2-fluoro-phenyl)-3,4-dihydro-1H-pyrrolo[1,2-a]pyrazin-2-yl]-methanone] | 36 | 54 |  |
| O=C(/C=C/c1ccc(F)cc1F)N1CCn2cccc2C1c1ccccc1 (centres unmarked) [Example 71, 3-(2,4-difluorophenyl)-1-(1-phenyl-3,4-dihydropyrrolo[1,2-a]pyrazin-2(1H)-yl)prop-2-en-1-one] | 17 | 27 |  |
| Cc1cccc(C2c3cccn3CCN2C(=O)c2ccc(F)cc2)c1 (centres unmarked) [Example 13, (4-fluoro-phenyl)-(1-m-tolyl-3,4-dihydro-1H-pyrrolo[1,2-a]pyrazin-2-yl)-methanone] | 41 | 55 |  |
| O=C(c1cccs1)N1CCn2cccc2C1c1ccccc1 (centres unmarked) [Example 22, (1-phenyl-3,4-dihydropyrrolo[1,2-a]pyrazin-2(1H)-yl)(thiophen-2-yl)methanone] | 33 | 18 |  |
| O=C(c1ccco1)N1CCn2cccc2C1c1ccccc1F (centres unmarked) [Example 5, (1-(2-fluorophenyl)-3,4-dihydropyrrolo[1,2-a]pyrazin-2(1H)-yl)(furan-2-yl)methanone] | 34 | 11 |  |
| O=C(c1cccc(F)c1)N1CCn2cccc2C1c1cccc(Cl)c1 (centres unmarked) [Example 43, [1-(3-chloro-phenyl)-3,4-dihydro-1H-pyrrolo[1,2-a]pyrazin-2-yl]-(3-fluoro-phenyl)-methanone] | 66 | 58 |  |
| O=C(C1CCC1)N1CCn2cccc2C1c1ccc(Cl)c(Cl)c1 (centres unmarked) [Example 66, cyclobutyl(1-(3,4-dichlorophenyl)-3,4-dihydropyrrolo[1,2-a]pyrazin-2(1H)-yl)methanone] | 32 | 43 |  |
| O=C(c1ccc(F)cc1)N1CCn2cccc2C1c1cccc(Cl)c1 (centres unmarked) [Example 46, [1-(3-chloro-phenyl)-3,4-dihydro-1H-pyrrolo[1,2-a]pyrazin-2-yl]-(4-fluoro-phenyl)-methanone] | 50 | 52 |  |
